Results published in a melting point compilation (Tetko et al.; mined from patent text by program, amines drawn as free bases though some values may be those of a salt).

Row | melting point [°C] | Structure (SMILES)
1 | 124 to 127 | CCOc1cc(C2=NN(C3CCCC3)C(=O)[C@H]3CC=CC[C@@H]23)ccc1OC (relative stereo)
2 | 121 to 122 | CCCC(=O)c1cnc2c(O)cccc2c1Nc1ccc(F)cc1C
3 | 186 to 190 | CCc1nc(NC)sc1C(=O)c1ccc(Cl)c([N+](=O)[O-])c1
4 | 139 | Cn1nc(C(F)(F)F)cc1Oc1cc(C#N)cc(Oc2cc(C(F)(F)F)nn2C)c1
5 | 53 to 57 | CCC(C)C(NC(=O)N1CCCCCC1)C(=O)NC(Cc1ccc(OCc2ccccc2)cc1)C(=O)OC(C)(C)C (centres undefined)
6 | 81 to 84 | O=C(O)Cc1ccccc1Oc1cccc(F)c1
7 | 96 to 98 | CCOC(=O)c1cc2c(Br)c(Br)oc2nc1C(=O)OCC
8 | 47 to 48 | COc1ccc(C(=O)CCCCCBr)cc1F
9 | 58 to 60 | COC(=O)c1cc(C(C)(C)C(=O)OC)ccc1N
10 | > 300 | O=c1[nH]c2cc(Cl)ccc2c(O)c1-c1ccccc1Cl
11 | 218 to 219 | CC(C)c1cc(C(=O)Nc2cc(F)c(C(=O)O)c(F)c2)sc1C(C)C
12 | 48 to 53 | NCCCCCCCCO
13 | 150 to 152 | O=C(O)Cc1ccc2c(c1)[nH]c1ccccc12
14 | 128 to 130 | COc1cc(OC)cc(S(=O)(=O)c2ccc(N)cc2)c1
15 | 84 to 87 | CCNc1cccc(NC(=O)COCC)c1C#N
16 | 182 to 184 | COC(=O)C1(N)CCN(c2ncc3ncnc(Nc4ccc(F)c(Cl)c4)c3n2)CC1
17 | 153 to 157 | COc1ccccc1[N+]1([O-])CC[N+]([O-])(CCN(C(=O)C2CCCCC2)c2ccccc2[N+](=O)[O-])CC1 (centres undefined)
18 | 106 | COP(=O)(Cc1cc(CP(=O)(OC)OC)cc(CP(=O)(OC)OC)c1)OC
19 | 125 to 127 | Clc1cccc(Cl)c1-c1nc(-c2ccccc2)c(-c2ccccc2)[nH]1
20 | 150 to 151 | COc1cc2c(cc1OC)CC(NC(=O)N(C)O)CC2 (centres undefined)
21 | 64.7 | CCc1nn(C2CCCC2)c2c1CCN(c1ccc(OC)cc1)C2=O
22 | 145 to 147 | COC(=O)c1ccc(O)c(C(=O)CC(=O)c2cc(C)ccc2OC)c1
23 | 139 | CCn1nc(-c2ccccc2)c(C(C)=O)c(Nc2ccc(CN)cc2)c1=O
24 | 107 to 108 | CCCOC1(C=O)C=CCC(OC)(N2CCC(c3noc4cc(F)ccc34)CC2)C1O (centres undefined)
25 | 49.5 to 50.5 | CCOC(=O)CCc1ccc(OC)c(OCc2ccccc2)c1

Row | melting point [°C] | Structure (SMILES)
26 | 85 | COc1ccc2c(c1)C(C(=O)N(Cc1ccc(Br)cc1)c1ccc(C(C)C)cc1)CCC2 (centres undefined)
27 | 222 to 224 | CN(C)C(=O)N(Cc1ccccc1)C(=O)c1cccc(-c2nc(=O)c3ccccc3s2)n1
28 | 153 to 155 | Cc1cn(-c2ccc(NC(=O)c3ccc(Cl)c(C#Cc4ccc(NC5CCC5)nn4)c3)cc2C(F)(F)F)cn1
29 | 73 to 74 | COc1ccc(CCC(=O)c2cccnc2Oc2ccc(F)cc2)cc1
30 | 114 to 115 | CCOC(=O)C(Cl)=Cc1cc(-n2c(Cl)nc(C(F)(F)F)cc2=O)ccc1Cl
31 | 176 to 178 | CCOC(=O)CN1C(=O)[C@@H](N)[C@H](c2ccccc2)Sc2ccccc21
32 | 89 to 90 | CS(=O)(=O)c1ccc(C(CC2CCOCC2)c2ccc(-c3ccccn3)[nH]2)cn1 (centres undefined)
33 | 224 | COCC(O)CN1CCN(c2cc3c(cc2F)c(=O)c(C(=O)O)c2n3CCS2)CC1 (centres undefined)
34 | 195 to 197 | CCOCc1nc2c(N)nc3ccccc3c2n1CC1(O)CCN(C(=O)OC(C)(C)C)CC1
35 | 36 to 37 | CCC(=O)c1ccc(C#C[Si](C)(C)C)cc1
36 | 86 to 87 | O=[N+]([O-])CS(=O)(=O)c1c(F)c(F)cc(F)c1F
37 | 74 | CC=CN1C(=O)CN(c2ccccc2)C1=S
38 | 105 to 106 | CCCC1CC(O)N(C(C)=O)C1(C(=O)OCC)C(=O)OCC (centres undefined)
39 | 278 to 281 | NC(=O)c1ccc2c(c1)S(=O)(=O)N=CN2C1CC1
40 | 200 | Cc1cccc(-c2sc(N)nc2-c2ccnc(-c3ccc(CN4CCCC4)cc3)c2)n1
41 | 119 to 121 | Cc1nc2cccc(OCc3ccccc3)c2[nH]1
42 | 128 to 129 | CNC(=O)[C@@H](NC(=O)[C@H](CC(=O)NOCc1ccccc1)CC(C)C)C(C)(C)C
43 | 110 | CCCCN(CCCC)CCCOc1ccc(S(=O)(=O)c2ncsc2-c2ccccc2)cc1
44 | 166 to 167 | Nc1cc(C=O)nc(-c2ccc(C(F)(F)F)nc2)c1F
45 | 188 to 189 | O=C(O)c1cccc2c1CCc1ccccc1C2=O
46 | 154 | COc1ccc(CNC(=O)n2cc(F)c(=O)[nH]c2=O)c(OC)c1
47 | 202 to 203 | CCc1nc2c(N)nc3cc(OCC(=O)c4ccsc4)ccc3c2s1
48 | 175 | OC(c1ccccc1)c1ccc2c(c1)N1CCN=C1S2 (centres undefined)
49 | 139 | Cn1cncc1C(O)(c1ccc(Cl)cc1)c1ccc2c(c1)c(-c1cccc(Cl)c1)nc1nnnn12 (centres undefined)
50 | 156 to 160 | O=C(O)Cc1cccc2c(=O)cc(-c3c(F)c(F)c(F)c(F)c3F)oc12

Row | melting point [°C] | Structure (SMILES)
51 | 254 to 256 | CCc1cc(C(=O)c2ccccc2Cl)c(-n2c(Cl)nnc2CNC(=O)c2cc3ccccc3[nH]2)s1
52 | 235 to 236 | O=c1c(CCC(O)c2ccncc2)cc2cccnc2n1-c1cccc([N+](=O)[O-])c1 (centres undefined)
53 | 159 to 161 | Cc1nnc2ccc(-c3cccc(N(C)C(=O)N(C)C)c3)nn12
54 | 150 to 152 | OCCCc1ncnn1C(c1ccccc1)(c1ccccc1)c1ccccc1
55 | 112 to 114 | O=C1c2cc(OCc3ccccc3)ccc2OCCC1Oc1ccccc1 (centres undefined)
56 | 100 to 101 | COC1(OCC#Cc2ccc(Cl)nc2)C=CC=NC1 (centres undefined)
57 | 124 to 126 | CCOC(=O)c1[nH]cc(C)c(=O)c1C
58 | 160 to 163 | Cc1cc(C)cc(-c2cn(C)cc(-c3cccc(C(F)(F)F)c3)c2=O)c1
59 | 185 to 189 | CC(C)(C)c1cc(CCC(=O)NCCNc2c(Cl)c(Cl)nc(Cl)c2C#N)cc(C(C)(C)C)c1O
60 | 193 to 194 | O=CC(=Cc1cccc(OCc2ccc(Cl)cc2)c1)C(C=O)=Cc1cccc(OCc2ccc(Cl)cc2)c1
61 | 148 to 150 | NC(=O)CNC(=O)c1cc(-c2ccc(F)c3cc(Cc4cc(F)cc(Cl)c4)sc23)ccc1F
62 | 84 to 85 | COC1(c2ccc3c(c2)OCO3)CCC(=O)CC1
63 | 169 to 171 | COc1cn(-c2ccc(C(F)(F)F)cc2F)nc(-c2ccnn2-c2ccccc2)c1=O
64 | 176 to 178 | COc1cc(C(=O)NS(=O)(=O)c2ccccc2)cnc1C(=O)O
65 | 55 to 56 | O=C(NCCCc1ccccc1)Oc1ccccc1
66 | 182 to 185 | CN(C)c1ccc2c(c1)C(=O)OC2
67 | 168 to 169 | COP(=O)(OC)c1ccc(-c2coc3ccc(-c4nnc(C)o4)cc23)cc1
68 | 109 to 111 | COC(=O)C(C)(C)CCCOc1cc(C)c(N2C(=O)c3ccccc3C2=O)cc1C
69 | 150 to 151 | CCCc1nc(NC)sc1-c1ccncc1
70 | 109 to 111 | O=C(NCCCc1c[nH]c2ccc(OCc3ccc4ccccc4n3)cc12)OCc1ccccc1
71 | 139 | COc1ccccc1C(=O)N1CCCC2=C1CCc1cc(Cl)ccc12
72 | 230 to 233 | Cn1ccnc1C(=O)c1[nH]c2ccc(Cl)cc2c1CC(=O)O
73 | 90.6 to 91.2 | O=C(O)c1ccc(OC(F)(F)F)cc1Cl
74 | 81 to 83 | COc1ccc(/C=C/c2cnccn2)cc1OC1CCCC1
75 | 175 to 177 | O=C(O)C1CCc2cc(O)ccc2O1 (racemic)

Row | melting point [°C] | Structure (SMILES)
76 | 78 | COC(=O)c1cc(OC(C)=O)c2cc(Br)ccc2c1C
77 | 175 | COc1ccc(CN2CCC(C(=O)NO)(S(=O)(=O)c3ccc(OC)cc3)CC2)cc1
78 | 158 | CCCc1ncnc(O)c1Cc1ccc(-c2ccccc2C#N)cc1
79 | 135 to 138 | CSc1nccc(-c2ccc(NC(=O)c3cc(F)cc(N4CCOCC4)c3)c3ccccc23)n1
80 | 210 to 211 | CNC(=O)c1c(NC(=O)c2cc(C(F)(F)F)nn2-c2ncccc2Cl)ccc2ncccc12
81 | 186 to 189 | COCc1nc2c(N)nc3ccccc3c2n1CC(C)(C)OCCS(C)(=O)=O
82 | 56 to 67 | CCCn1cnc2c1c(=O)n(CCCCCCOc1ccc(OC)cc1)c(=O)n2C
83 | 98 | CCC(=O)C1=C(O)CC(c2ccc3c(c2)CCC3)CC1=O (centres undefined)
84 | 118 to 119 | Cc1sc(-c2ccccc2)nc1COc1ccc(C=O)cc1
85 | 165 to 172 | COc1cc2ncc(C#N)c(C)c2cc1OCc1ccccc1
86 | 115 | CC(C)(C)OC(=O)NCCNC(=O)c1ncsc1-c1cccc(OCc2cccc(C#N)c2)c1
87 | 165 to 166 | Cc1c(/C=N/OCc2ccc(C(=O)O)c(Br)c2)c2ccccc2n1C
88 | 200 to 201 | CCc1csc(CCc2ccc(NC(=O)/C=C/c3cnn(C)c3-c3ccc(F)cc3)cc2)n1
89 | 136 to 138 | CC(C)Cn1c(Nc2cc(C(F)(F)F)ccc2C(F)(F)F)nc(C(F)(F)F)cc1=O
90 | 146 to 147 | CC(=O)CC(=O)Nc1ccc(N)c([N+](=O)[O-])c1
91 | 128 to 129 | CCC(C)(C)C(=O)c1ccc(C(=O)O)cc1
92 | 107 to 109 | COc1cccc(-c2cn3c(n2)CCc2ccccc2-3)c1
93 | 120 to 121 | Cc1ccc(N(C)S(=O)(=O)c2cccs2)c2[nH]c(C3=NCC(CC(N)=O)S3)cc12 (centres undefined)
94 | 129 | Cc1ccc(S(=O)(=O)N2[C@@H](CCO)CC[C@H]2c2ccc(F)cc2)cc1 (racemic)
95 | 109 to 110 | Cc1oc(-c2ccccc2)nc1CCc1nc(COc2ccccc2CC(=O)O)co1
96 | 74 to 75 | Cc1ccc(CCOc2ccc(N)cc2)nc1
97 | 92.5 to 95 | COc1ccc(F)cc1OCC=O
98 | 72 to 73 | CCN(CC(C)(C)C)c1nc2c(cc1CN(Cc1cc(C(F)(F)F)cc(C(F)(F)F)c1)c1nnn(C)n1)c(C)nn2C
99 | 78.5 to 80.5 | CCON=C(c1ccccc1COc1ccccc1)n1cncn1
